Reference: US12410166B2, “Sulfonylamidine substituted compounds and their use as beta-lactamase inhibitors” (NINGXIA ACADEMY OF AGRICULTURE AND FORESTRY SCIENCES, priority 2021, dated 2025)

How the values were obtained:
Assay in all cases: MIC by broth microdilution (antibacterial and synergistic activity)
Type in all cases: cell-based
[1] = tested on: E. cloacae clinical isolate (strain 5, P99); conditions: strain 5 (P99); for MIC: Enterobacter cloacae, read-out: Antibacterial activity, MIC, inhibitor Alone
Description: (§1) Compounds of the present invention alone, avibactam (AVI) alone, relebactam (REL) alone, meropenem (MER) alone, imipenem (IMI) alone, and as a combination of compounds of the present invention, or avibactam or relebactam with test antibiotic (meropenem or imipenem) was tested for antimicrobial activity by determining minimum inhibitory concentration (MIC, mg/L) using the broth microdilution method according to the guidelines of the Clinical Laboratories and Standards Institute (“Methods for Dilution Antimicrobial Susceptibility Tests for Bacterial that Grow Aerobically”, Approved standard, 7th ed., Clinical and Laboratories Standards Institute (CLSI) Document M7-A8, Wayne, Pa., USA, 2009). Meropenem or imipenem as a test antibiotic compound was dissolved in DMSO, and then diluted in microbial growth medium (Mueller-Hinton Broth II, cation adjusted) resulting in a final concentration range of 0.031-64 mg/L in serial two-fold dilution. In all cases the final DMSO concentration was less than 0.5%. Bacteria were added to 96-well microtitre plates containing the serial two-fold dilutions of the compounds; the final cell density was approximately 5×10^5 colony forming units/mL (CFU/mL). Plates were incubated at 37° C. for 18-24 hours and read visually. The MIC, i.e. the lowest concentration of the test compound that inhibited visible growth of the bacteria, was recorded. The same assay conditions were used when the compounds of present invention alone, avibactam or relebactam alone (as a control), and as a combination of the present invention each compound, or avibactam or relebactam with test meropenem or imipenem antibiotic compound was tested for minimum inhibitory concentration (MIC, mg/L). While test meropenem or imipenem was serially diluted as described above, a constant concentration of avibactam, or relebactam or the present invention each compound of 4 mg/L was used.
(§2) Bacterial strains that were used to evaluate the antimicrobial activity using the MIC determination included but were not limited to E. coli clinical isolate (strain 1, TEM-1), E. coli 8739 (strain 2, CTX-M15), K. pneumoniae clinical isolate (strain 3, SHV-1), K. pneumoniae 700603 (strain 4, KPC-3, TEM-1), E. cloacae clinical isolate (strain 5, P99), E. cloacae 700323 (strain 6, AmpC), A. baumannii clinical isolate (strain 7, OXA-23, OXA-40), A. baumannii 19606 (strain 8, OXA-24), P. aeruginosa clinical isolate (strain 9, KPC-2), P. aeruginosa 9027 (strain 10, AmpC).

[2] = tested on: K. pneumoniae 700603 (strain 4, KPC-3, TEM-1); conditions: strain 4 (KPC-3, TEM-1); for MIC: Klebsiella pneumoniae, read-out: Antibacterial activity, MIC, inhibitor Alone
Description: as §1, §2

[3] = tested on: E. coli clinical isolate (strain 1, TEM-1); conditions: strain 1 (TEM-1); for MIC: Escherichia coli, read-out: Antibacterial activity, MIC, inhibitor Alone
Description: as §1, §2

[4] = tested on: A. baumannii clinical isolate (strain 7, OXA-23, OXA-40); conditions: strain 7 (OXA-23/40); for MIC: Acinetobacter baumannii, read-out: Antibacterial activity, MIC, inhibitor Alone
Description: as §1, §2

[5] = tested on: P. aeruginosa clinical isolate (strain 9, KPC-2); conditions: strain 9 (KPC-2); for MIC: Pseudomonas aeruginosa, read-out: Antibacterial activity, MIC, inhibitor Alone
Description: as §1, §2

[6] = tested on: E. coli 8739 (strain 2, CTX-M15); conditions: for MIC: Escherichia coli, read-out: Antibacterial activity, MIC, inhibitor Alone
Description: as §1, §2

[7] = tested on: A. baumannii 19606 (strain 8, OXA-24); conditions: for MIC: Acinetobacter baumannii, read-out: Antibacterial activity, MIC, inhibitor Alone
Description: as §1, §2

[8] = tested on: E. cloacae 700323 (strain 6, AmpC); conditions: strain 6 (AmpC); for MIC: Enterobacter cloacae, read-out: Antibacterial activity, MIC, inhibitor Alone
Description: as §1, §2

[9] = tested on: P. aeruginosa 9027 (strain 10, AmpC); conditions: strain 10 (AmpC); for MIC: Pseudomonas aeruginosa, read-out: Antibacterial activity, MIC, inhibitor Alone
Description: as §1, §2

[10] = tested on: K. pneumoniae clinical isolate (strain 3, SHV-1); conditions: strain 3 (SHV-1); for MIC: Klebsiella pneumoniae, read-out: Antibacterial activity, MIC, inhibitor Alone
Description: as §1, §2

[11] = strain 8 (OXA-24), inhibitor at constant 4 mg/L

SMILES: N=C(NS(=O)(=O)CC(F)(F)F)[C@@H]1CC[C@@H]2CN1C(=O)N2OS(=O)(=O)[O-].[Na+] [Ex. 1, Sodium (2S,5R)-7-oxo-2-(N-((2,2,2-trifluoroethyl)sulfonyl)caramimidoyl)-1,6-diazabicyclo[3.2.1]octan-6-yl sulfate]
- Antibacterial activity, MIC, inhibitor Alone ([1]; compound alone, no antibiotic): >64 µg/mL
- MIC of imipenem in combination with the inhibitor (IMI + inhibitor) ([1]; inhibitor at constant 4 mg/L): 1 µg/mL
- MIC of meropenem in combination with the inhibitor (MER + inhibitor) ([1]; inhibitor at constant 4 mg/L): <0.125 µg/mL
- Antibacterial activity, MIC, inhibitor Alone ([2]; compound alone, no antibiotic): >64 µg/mL
- MIC of imipenem in combination with the inhibitor (IMI + inhibitor) ([2]; inhibitor at constant 4 mg/L): 0.25 µg/mL
- MIC of meropenem in combination with the inhibitor (MER + inhibitor) ([2]; inhibitor at constant 4 mg/L): <0.125 µg/mL
- Antibacterial activity, MIC, inhibitor Alone ([3]; compound alone, no antibiotic): >64 µg/mL
- MIC of imipenem in combination with the inhibitor (IMI + inhibitor) ([3]; inhibitor at constant 4 mg/L): 0.125 µg/mL
- MIC of meropenem in combination with the inhibitor (MER + inhibitor) ([3]; inhibitor at constant 4 mg/L): <0.125 µg/mL
- Antibacterial activity, MIC, inhibitor Alone ([4]; compound alone, no antibiotic): >64 µg/mL
- MIC of imipenem in combination with the inhibitor (IMI + inhibitor) ([4]; inhibitor at constant 4 mg/L): 0.0625 µg/mL
- MIC of meropenem in combination with the inhibitor (MER + inhibitor) ([4]; inhibitor at constant 4 mg/L): <0.125 µg/mL
- Antibacterial activity, MIC, inhibitor Alone ([5]; compound alone, no antibiotic): >64 µg/mL
- MIC of imipenem in combination with the inhibitor (IMI + inhibitor) ([5]; inhibitor at constant 4 mg/L): 0.25 µg/mL
- MIC of meropenem in combination with the inhibitor (MER + inhibitor) ([5]; inhibitor at constant 4 mg/L): 0.125 µg/mL
- Antibacterial activity, MIC, inhibitor Alone ([6]; strain 2 (CTX-M15), compound alone, no antibiotic): >64 µg/mL
- Antibacterial activity, MIC, inhibitor Alone ([7]; strain 8 (OXA-24), compound alone, no antibiotic): >64 µg/mL
- MIC of imipenem in combination with the inhibitor (IMI + inhibitor) [7, 11]: 0.062 µg/mL
- MIC of meropenem in combination with the inhibitor (MER + inhibitor) [7, 11]: 0.5 µg/mL
- Antibacterial activity, MIC, inhibitor Alone ([8]; compound alone, no antibiotic): >64 µg/mL
- MIC of imipenem in combination with the inhibitor (IMI + inhibitor) ([8]; inhibitor at constant 4 mg/L): 0.0625 µg/mL
- MIC of meropenem in combination with the inhibitor (MER + inhibitor) ([8]; inhibitor at constant 4 mg/L): <0.125 µg/mL
- Antibacterial activity, MIC, inhibitor Alone ([9]; compound alone, no antibiotic): >64 µg/mL
- MIC of imipenem in combination with the inhibitor (IMI + inhibitor) ([9]; inhibitor at constant 4 mg/L): 0.5 µg/mL
- MIC of meropenem in combination with the inhibitor (MER + inhibitor) ([9]; inhibitor at constant 4 mg/L): 0.125 µg/mL
- Antibacterial activity, MIC, inhibitor Alone ([10]; compound alone, no antibiotic): >64 µg/mL
- MIC of imipenem in combination with the inhibitor (IMI + inhibitor) ([10]; inhibitor at constant 4 mg/L): 0.25 µg/mL
- MIC of meropenem in combination with the inhibitor (MER + inhibitor) ([10]; inhibitor at constant 4 mg/L): 0.125 µg/mL

SMILES: CCS(=O)(=O)NC(=N)[C@@H]1CC[C@@H]2CN1C(=O)N2OS(=O)(=O)[O-].[Na+] [Ex. 8, Sodium (2S,5R)-2-(N-(ethylsulfonyl)carbamimidoyl)-7-oxo-1,6-diazabicyclo[3.2.1]octan-6-yl sulfate]
- MIC ([1]; compound alone, no antibiotic): > 64 µg/mL
- MIC ([2]; compound alone, no antibiotic): > 64 µg/mL
- MIC ([3]; compound alone, no antibiotic): > 64 µg/mL
- MIC ([4]; compound alone, no antibiotic): > 64 µg/mL
- MIC ([5]; compound alone, no antibiotic): > 64 µg/mL
- MIC [6]: > 64 µg/mL
- MIC [7]: > 64 µg/mL
- MIC ([8]; compound alone, no antibiotic): > 64 µg/mL
- MIC ([9]; compound alone, no antibiotic): > 64 µg/mL
- MIC ([10]; compound alone, no antibiotic): > 64 µg/mL

SMILES: N=C(NS(=O)(=O)C1CC1)[C@@H]1CC[C@@H]2CN1C(=O)N2OS(=O)(=O)[O-].[Na+] [Ex. 6, Sodium (2S,5R)-2-(N-(cyclopropylsulfonyl)carbamimidoyl)-7-oxo-1,6-diazabicyclo[3.2.1]octan-6-yl sulfate]
- MIC ([1]; compound alone, no antibiotic): > 64 µg/mL
- MIC ([2]; compound alone, no antibiotic): > 64 µg/mL
- MIC ([3]; compound alone, no antibiotic): > 64 µg/mL
- MIC ([4]; compound alone, no antibiotic): > 64 µg/mL
- MIC ([5]; compound alone, no antibiotic): > 64 µg/mL
- MIC [6]: > 64 µg/mL
- MIC [7]: > 64 µg/mL
- MIC ([8]; compound alone, no antibiotic): > 64 µg/mL
- MIC ([9]; compound alone, no antibiotic): > 64 µg/mL
- MIC ([10]; compound alone, no antibiotic): > 64 µg/mL
